Columns and labels:
[1] = tested on: gastrocnemius muscle; assay: Streptozotocin diabetes model of muscle atrophy: FoxO3 mRNA and miR-182 in gastrocnemius muscle; type: in vivo; details: rats, STZ 125 mg/kg single intravenous injection, third day; for decrease of miR-182 in muscle: vs controls
Method: (§1) FoxO3 mRNA (Panels A and C) and miR-182 (Panels B and D) were measured in either cells treated with Dex (1 μM) for 6 h (Panels A and B) or in gastrocnemius muscles of either control or streptozotocin-injected, acutely diabetic rats (Panels C and D). Results are reported as the mean±SEM of the fold-change of the respective control values.
Whether there is a similar relationship between FoxO3 and miR-182 expression was investigated in vivo in skeletal muscle during atrophy. STZ-induced diabetes mellitus causes muscle atrophy and responses (e.g., increased atrogin-1 expression) that are consistent with FoxO3 activation. Therefore, FoxO3 expression was evaluated during STZ-induced diabetes mellitus by measuring FoxO3 mRNA. FoxO3 mRNA was increased 75% (FIG. 2D) whereas the level of miR-182 was decreased 43% (P<0.05) (FIG. 2D).
Male rats (˜150 gm) received a single intravenous injection of STZ (125 mg/kg) in citrate buffer. STZ-injected and control rats were pair-fed and on the third day after injection the animals were anesthetized, and the gastrocnemius muscle was harvested. Food was withheld during the night before the tissue harvest to avoid the confounding influences of variable food intake on skeletal muscle protein metabolism. All animal studies were approved by the Emory Institutional Animal Care and Use Committee (IACUC).

[2] = tested on: C2C12 myotubes; assay: FoxO3 mRNA and intracellular miR-182 in C2C12 myotubes treated with Dex to induce atrophy; type: cell-based, Mouse; details: Dex 1 μM, 6 hours
Method: as §1
To test this, C2C12 myotubes were treated with dexamethasone (Dex), a synthetic glucocorticoid, which induces atrophy, in part, by increasing FoxO3 activity in C2C12 myotubes. […] Simultaneously, the amount of intracellular miR-182 decreased 44% (FIG. 2B).
Mouse C2C12 myoblasts (American Type Culture Collection, Manassas, Va.) were cultured in growth media [Dulbecco modified Eagle medium plus 10% fetal bovine serum (Atlanta Biologicals, Lawrenceville, Ga.) and 1% penicillin and streptomycin (Invitrogen, Carlsbad, Calif.)] and studied between passage 3 and 7. Myoblasts were grown to ˜95% confluence in a 6-well plate and then differentiated into myotubes by replacing growth media with differentiation media (DMEM supplemented with 2% fetal bovine serum and 1% PS) for 3 days. In some experiments, myotubes were treated with 1 μM Dex for 6 hours before being harvested.

[3] = tested on: C2C12 myotubes; assay: miR-182 in media exosomes released from C2C12 myotubes after Dex; type: cell-based, Mouse; details: Dex 6 h
Method: Fresh differentiation media containing 100 nM Dex or vehicle was added to myotubes for 6 h. Afterwards, RNA was prepared from isolated media exosomes and miR-182, along U6 controls, was measured.
One mechanism by which microRNAs are protected from degradation is through incorporation into protective exosomes. This has led some to propose that the relative abundance patterns of microRNAs in various tissues and fluids as well as exosomes and other microvesicles are a reflection of underlying pathophysiological processes. Dex administration enhances the exosomal packaging and release of two atrophy-related microRNAs (miR-1 and miR-23a) into the media of C2C12 myotubes. This led us to test whether miR-182 is incorporated into exosomes that are released from myotubes. The amount of miR-182 in exosomes, normalized to U6 small nuclear RNA, is increased 95% in exosomes following Dex treatment to myotubes (FIG. 4). […]
To quantify exosomal microRNA, exosome-associated RNA, including microRNA, was isolated using a urine exosome RNA isolation kit (Norgen Biotek, Thorolod, ON, Canada) according to the manufacturer's instructions for isolating RNA from extracellular fluids. Subsequent quantitative PCR (qPCR) was performed.

SMILES	decrease of miR-182 in muscle ([1]; P<0.05) [%]	decrease of miR-182 in muscle ([1]; P<0.05, listed as STZ) [%]	increase of FoxO3 mRNA in muscle ([1]; vs pair-fed controls) [%]	decrease of intracellular miR-182 [2] [%]	increase of FoxO3 mRNA [2] [%]	decrease of intracellular miR-182 ([2]; listed as dexamethasone) [%]	increase of miR-182 in exosomes, normalized to U6 small nuclear RNA [3] [%]
CN(N=O)C(=O)N[C@H]1C(O)O[C@H](CO)[C@@H](O)[C@@H]1O (mixture of isomers) [streptozotocin]	44	43	75				
C[C@@H]1C[C@H]2[C@@H]3CCC4=CC(=O)C=C[C@]4(C)[C@@]3(F)[C@@H](O)C[C@]2(C)[C@@]1(O)C(=O)CO [Dexamethasone, dexamethasone]				63	133	44	95
